# According to US11426415B2, “Treatment for Wolfram syndrome and other endoplasmic reticulum stress disorders” (Washington University, priority 2017, dated 2022):
# Where two headings read alike, the source gives them in different places.
# Columns and labels:
# mouse model of SCA = settings: given with a RyR inhibitor; cited from earlier work
# [1] = test system: WFS1 depleted INS-1 832/13 cells; test: Cell death in WFS1 depleted INS-1 832/13 cells (Caspase 3/7 activation); type: cell-based; settings: pretreated 24 h with various concentrations, then DOX 48 h to deplete WFS1; FIGS. 3 and 4
# Text: (§1) A Caspase 3/7 assay (Promega, Madison, Wis.) was utilized to measure caspase-3 and -7 activities in various cell lines. The assay provides a proluminescent caspase-3/7 substrate, which contains the tetrapeptide sequence DEVD. This caspase-3/7 substrate can be added directly to cell lysates. The substrate is cleaved to release an aminoluciferin, which is a substrate for luciferase used in the production of light. The signal is proportional to caspase-3/7 activity. The stabilized luciferase and proprietary buffer system improve assay performance across a wide range of assay conditions, and the assay is less likely to be affected by compound interference unlike fluorescent- or colorimetric-based assays
# INS-1 832/13 cells in which WFS1 expression could be depleted by doxycycline (DOX)-inducible expression of shWFS1 were pretreated with or without various concentrations of JTV519 or oxidized JTV519 for 24 h and then treated with DOX for 48 h to deplete WFS1 and induce cell death. Apoptosis was measured by monitoring Caspase 3/7 activation.
# INS-1 832/13 cells = test: Cytosolic calcium levels by Fura-2AM in INS-1 832/13 cells challenged with thapsigargin; type: cell-based; settings: range of concentrations, thapsigargin 1 μM added, FIGS. 5 and 6
# Procedure: INS-1 832/13 cells were treated with JTV519 or JTV519-oxidized over a range of concentrations. Cytoplasmic calcium levels were measured by Fura-2AM calcium indicator over a period of minutes. Thapsigargin (1 μM) was added at the time point indicated by an arrow (n=6, the experiment was repeated 6 independent times) on FIGS. 5 and 6.
# INS-1 823/13 cells = test: Thapsigargin-mediated cell death (caspase 3/7-Glo luminescence); type: cell-based; settings: pretreated 24 hours, then 0.5 nM thapsigargin overnight; FIGS. 7-9
# Text: as §1
# The pathway leading to calpain-2 activation provides potential therapeutic targets for Wolfram syndrome, such as leakage of ER calcium to the cytosol. To test this concept, a small-scale screen was performed to identify chemical compounds that could prevent cell death mediated by thapsigargin, a known inhibitor for ER calcium ATPase. INS-1 823/13 cells were pretreated with […] in media containing 0.5 nM of thapsigargin (TG) overnight. Apoptosis was detected by caspase 3/7-Glo luminescence.
# INS-1E cells = test: Cytokine-induced cell death in INS-1E cells (caspase 3/7 activity assay); type: cell-based; settings: 1 μM-50 μM for 24 hours, then IL-1β and IFN-γ 50 ng/ml for 24 hours; FIG. 10
# Text: as §1
# To determine whether JTV519 can prevent ER calcium depletion and confer protection against ER stress-mediated cell death in a cell model of type 1 diabetes. INS-1E cells were pre-treated with 1 μM-50 μM of JTV519 for 24 hours then stressed for 24 hours with cytokines (IL-1β and IFN-γ 50 ng/ml). Apoptotic cell death was measured via caspase 3/7 activity assay. […] Data are expressed as mean±SEM from three independent experiments. *p<0.05 compared to cytokine treated cells unpaired t-test.
# [2] = Pharmacokinetic study of JTV519 in CD1 mice (UPLC-MS/MS); type: in vivo; settings: for AUC(0-inf) / Cmax / half-life / Kp: CD-1 mouse; for Kp: read-out: AUC ratio (with plasma)
# Procedure: To study the pharmacokinetics of JTV519, the compound was synthesized as the HCl salt and formulated as a clear solution in 20% HP-β-CD in saline and intraperitoneally injected into CD1 mice. Samples of blood and pancreas tissue and whole brain and heart organs were collected from the mice and analyzed.
# An ultra-performance liquid chromatography-tandem mass spectrometry (UPLC-MS/MS) method was developed to determine sample concentrations in the samples. Mass spectrometric analysis was performed on a Waters Xevo TQ-S triple quadrupole instrument using electrospray ionization in positive mode with the selected reaction monitoring (SRM). The MS/MS parameters were optimized by infusion compounds. The separation was performed on an Acquity BEH C18 column (50×2.1 mm, 1.7μ) using a Waters Acquity UPLC system with 0.6 mL/min flow rate and gradient elution. The column temperature was maintained at 60° C. The calibration standards (1.0-5000 ng/mL) and quality control samples were prepared in the blank mouse plasma. 10 μL plasma samples were mixed with 200 μL internal standard in acetonitrile to precipitate proteins in a 96-well plate. 1.0 μL supernatant was injected for the UPLC-MS/MS analysis
# WFS1 gene knockout mice = test: Motor function study, 90° inclined screen test; type: in vivo; settings: i.p. 15 mg/kg/day, 5 days per week, 6 weeks, vs control mice, FIG. 11
# Procedure: WFS1 gene knockout mice, a mouse model of Wolfram syndrome, were treated with JTV519 (i.p. injections, 15 mg/kg/day, 5 days per week) or saline after they become 6 weeks old for 6 weeks (5 female mice for each group). Littermate wild-type control mice were treated by saline (VEH) for 6 weeks (3 female mice). Motor functions of the WFS1 knockout were evaluated using a 90° inclined screen test.
# For the 90° inclined screen test, each mouse was placed on top of an elevated (47 cm above the floor) wire mesh grid (16 squares per 10 cm) that was inclined to 90°. Each mouse was placed in the middle of the screen with its head oriented down and was timed for how long it remained on the screen and how long it took to climb to the top of the screen.
# [3] = conclusion from the pharmacokinetic study
smiles,measurement,setting,value
"O=C1CN(/N=C/c2ccc(-c3ccc([N+](=O)[O-])cc3)o2)C(=O)[N-]1.[Na+] [Dantrolene, 1-[[5-(4-nitrophenyl)-2-furyl]methylideneamino]imidazolidine-2,4-dione]",age dependent deficit of motor coordination,mouse model of SCA,ameliorated the age dependent deficit of motor coordination
"COc1ccc2c(c1)CN(C(=O)CCN1CCC(Cc3ccccc3)CC1)CCS2 [JTV519, 3-(4-benzyl-1-piperidinyl)-1-(7-methoxy-2,3-dihydro-1,4-benzothiazepin-4(5H)-yl)-1-propanone]","cell death (apoptosis, Caspase 3/7 activation)",[1],suppress cell death
same,cytosolic calcium levels,INS-1 832/13 cells,decreased cytosolic calcium levels
same,"thapsigargin mediated cell death (apoptosis, caspase 3/7-Glo)",INS-1 823/13 cells,did not significantly suppress thapsigargin mediated cell death
same,cytokine-induced cell death (caspase 3/7 activity),INS-1E cells,protects INS-1E cells from cytokine-induced cell death
same,AUC(0-inf),"[2]; brain, ip 30 mg/kg, n = 3",10100 ng·h/mL
same,Cmax,"[2]; brain, ip 30 mg/kg, n = 3",5130 ng/mL
same,half-life,"[2]; brain, ip 30 mg/kg, n = 3",5.1 h
same,Kp,"[2]; brain, ip 30 mg/kg, n = 3",2.9
same,permeability,[2]; [3],good
same,solubility,[2]; [3],good
same,blood brain barrier passage,"[2]; conclusion from the pharmacokinetic study, ip 30 mg/kg, mice",passed the blood brain barrier
same,AUC(0-inf),"[2]; heart, ip 30 mg/kg, n = 3",29200 ng·h/mL
same,Cmax,"[2]; heart, ip 30 mg/kg, n = 3",14300 ng/mL
same,half-life,"[2]; heart, ip 30 mg/kg, n = 3",4 h
same,Kp,"[2]; heart, ip 30 mg/kg, n = 3",8.4
same,AUC(0-inf),"[2]; pancreas, ip 30 mg/kg, n = 3",146000 ng·h/mL
same,Cmax,"[2]; pancreas, ip 30 mg/kg, n = 3",105000 ng/mL
same,half-life,"[2]; pancreas, ip 30 mg/kg, n = 3",4.5 h
same,Kp,"[2]; pancreas, ip 30 mg/kg, n = 3",42
same,AUC(0-inf),"[2]; plasma, ip 30 mg/kg",3460 ng·h/mL
same,half-life,"[2]; plasma, ip 30 mg/kg",7.1 h
same,Cmax,"[2]; plasma, ip 30 mg/kg, HCl salt in 20% HP-β-CD in saline",1810 ng/mL
same,motor functions (time to reach the top of the screen),WFS1 gene knockout mice,improved motor functions
